# Measurements as given in patent US12180198B2, “Ribocil C antibiotics effective for Gram-negative pathogens” (THE BOARD OF TRUSTEES OF THE UNIVERSITY OF ILLINOIS, priority 2018, dated 2024).
# Counter-ions that a name gives are not always drawn. Like-named read-outs stand apart in the source and are kept apart here.
# Legend:
# K. pneumoniae BAA-2146 = assay: Bioactivity against exemplary strains of bacteria (Table 5A); assay type: cell-based; details: Strain 4: K. pneumoniae BAA-2146
# E. coli BAA-2469 [1] = assay: as above; assay type: cell-based; parameters: unit not given here; details: Strain 2: E. coli BAA-2469
# A. baumannii BAA-2093 = assay: as above; assay type: cell-based; details: Strain 3: A. baumannii BAA-2093
# [2] = test system: E. coli strains with intact outer membranes; assay: MIC, micro-dilution broth method (text summary); assay type: cell-based; details: E. coli strains with intact outer membranes
# Procedure: FIG. 2. Antimicrobial activity of Debio-1452 and derivatives. MIC values were determined using the micro-dilution broth method as outlined by the Clinical and Laboratory Standards Institute (clsi.org/). All experiments were performed in biological triplicate.
# (§1) Antimicrobial susceptibility tests. Susceptibility testing was performed in biological triplicate, using the micro-dilution broth method as outlined by the Clinical and Laboratory Standards Institute. Bacteria were cultured with cation-adjusted Muller-Hinton broth (Sigma-Aldrich, Cat #90922) in round-bottom 96-well plates (Corning, Cat #3788). Human serum (pooled gender, 0.2 μm filtered) was purchased from BioIVT (Hicksville, NY).
# E. coli MG1655 = assay: MIC, micro-dilution broth method; assay type: cell-based; details: Escherichia coli
# Procedure: (§2) Compounds were evaluated against a panel of Gram-positive and Gram-negative organisms. MIC values were determined using the micro-dilution broth method as outlined by the Clinical and Laboratory Standards Institute (clsi.org/) and are listed in […]. All experiments were performed in biological triplicate.
# as §1
# E. coli ΔtolC JW5503 = assay: MIC, micro-dilution broth method; assay type: cell-based; details: Escherichia coli
# Procedure: as §2, §1
# K. pneumoniae BAA-2472 = assay: MIC, micro-dilution broth method; assay type: cell-based; details: Klebsiella pneumoniae, BAA2472; K. pneumoniae BAA-2472; read-out: MIC
# Procedure: as §2, §1
# E. coli BAA-2471 = assay: MIC, micro-dilution broth method; assay type: cell-based; details: Escherichia coli, BAA2471; E. coli BAA-2471; read-out: MIC
# Procedure: as §2, §1
# A. baumannii W41979 = assay: MIC, micro-dilution broth method; assay type: cell-based; details: Acinetobacter baumannii; A. baumannii W41979; read-out: MIC
# Procedure: as §2, §1
# A. baumannii KB343 = assay: MIC, micro-dilution broth method; assay type: cell-based; details: Acinetobacter baumannii; A. baumannii KB343; read-out: MIC
# Procedure: as §2, §1
# E. coli ΔrfaC JW3596 = assay: MIC, micro-dilution broth method; assay type: cell-based; details: Escherichia coli
# Procedure: as §2, §1
# E. coli AR-0346 = assay: MIC, micro-dilution broth method; assay type: cell-based; details: Escherichia coli, AR0346; E. coli AR-0346; read-out: MIC
# Procedure: as §2, §1
# A. baumannii F19521 = assay: MIC, micro-dilution broth method; assay type: cell-based; details: Acinetobacter baumannii; A. baumannii F19521; read-out: MIC
# Procedure: as §2, §1
# E. cloacae BAA-2341 = assay: MIC, micro-dilution broth method; assay type: cell-based; details: Enterobacter cloacae, BAA2341; E. cloacae BAA-2341; read-out: MIC
# Procedure: as §2, §1
# E. coli AR-0349 = assay: MIC, micro-dilution broth method; assay type: cell-based; details: Escherichia coli, AR0349; E. coli AR-0349; read-out: MIC
# Procedure: as §2, §1
# A. baumannii KB357 = assay: MIC, micro-dilution broth method; assay type: cell-based; details: Acinetobacter baumannii; A. baumannii KB357; read-out: MIC
# Procedure: as §2, §1
# K. pneumoniae S47889 = assay: MIC, micro-dilution broth method; assay type: cell-based; details: Klebsiella pneumoniae; K. pneumoniae S47889; read-out: MIC
# Procedure: as §2, §1
# E. cloacae S28901.1 = assay: MIC, micro-dilution broth method; assay type: cell-based; details: Enterobacter cloacae; E. cloacae S28901.1; read-out: MIC
# Procedure: as §2, §1
# E. coli AR-0495 = assay: MIC, micro-dilution broth method; assay type: cell-based; details: Escherichia coli, AR0495; E. coli AR-0495; read-out: MIC
# Procedure: as §2, §1
# K. pneumoniae BAA-2473 = assay: MIC, micro-dilution broth method; assay type: cell-based; details: Klebsiella pneumoniae, BAA2473; K. pneumoniae BAA-2473; read-out: MIC
# Procedure: as §2, §1
# K. pneumoniae BAA-1705 = assay: MIC, micro-dilution broth method; assay type: cell-based; details: Klebsiella pneumoniae, BAA1705; K. pneumoniae BAA-1705; read-out: MIC
# Procedure: as §2, §1
# A. baumannii WO22 = assay: MIC, micro-dilution broth method; assay type: cell-based; details: Acinetobacter baumannii; A. baumannii WO22; read-out: MIC
# Procedure: as §2, §1
# E. coli AR-0493 = assay: MIC, micro-dilution broth method; assay type: cell-based; details: Escherichia coli, AR0493; E. coli AR-0493; read-out: MIC
# Procedure: as §2, §1
# A. baumannii M13100 = assay: MIC, micro-dilution broth method; assay type: cell-based; details: Acinetobacter baumannii; A. baumannii M13100; read-out: MIC
# Procedure: as §2, §1
# K. pneumoniae S20595 = assay: MIC, micro-dilution broth method; assay type: cell-based; details: Klebsiella pneumoniae; K. pneumoniae S20595; read-out: MIC
# Procedure: as §2, §1
# K. pneumoniae M67297 = assay: MIC, micro-dilution broth method; assay type: cell-based; details: Klebsiella pneumoniae; K. pneumoniae M67297; read-out: MIC
# Procedure: as §2, §1
# K. pneumoniae BAA-2470 = assay: MIC, micro-dilution broth method; assay type: cell-based; details: Klebsiella pneumoniae, BAA2470; K. pneumoniae BAA-2470; read-out: MIC
# Procedure: as §2, §1
# K. pneumoniae AR-0347 = assay: MIC, micro-dilution broth method; assay type: cell-based; details: Klebsiella pneumoniae, AR0347; K. pneumoniae AR-0347; read-out: MIC
# Procedure: as §2, §1
# K. pneumoniae BAA-2342 = assay: MIC, micro-dilution broth method; assay type: cell-based; details: Klebsiella pneumoniae, BAA2342; K. pneumoniae BAA-2342; read-out: MIC
# Procedure: as §2, §1
# S. aureus ATCC 29213 = assay: MIC, micro-dilution broth method; assay type: cell-based; details: Staphylococcus aureus, ATCC29213, S. aureus ATCC 29213
# Procedure: as §2, §1
# K. pneumoniae M14723 = assay: MIC, micro-dilution broth method; assay type: cell-based; details: Klebsiella pneumoniae; K. pneumoniae M14723; read-out: MIC
# Procedure: as §2, §1
# K. pneumoniae M67198 = assay: MIC, micro-dilution broth method; assay type: cell-based; details: Klebsiella pneumoniae; K. pneumoniae M67198; read-out: MIC
# Procedure: as §2, §1
# E. coli BAA-2469 [3] = assay: MIC, micro-dilution broth method; assay type: cell-based; details: Escherichia coli, BAA2469; E. coli BAA-2469; read-out: MIC
# Procedure: as §2, §1
# A. baumannii KB304 = assay: MIC, micro-dilution broth method; assay type: cell-based; details: Acinetobacter baumannii; A. baumannii KB304; read-out: MIC
# Procedure: as §2, §1
# E. cloacae BAA-2468 = assay: MIC, micro-dilution broth method; assay type: cell-based; details: Enterobacter cloacae, BAA2468; E. cloacae BAA-2468; read-out: MIC
# Procedure: as §2, §1
# H. sapiens IMR-90 = assay: Cell viability, Alamar Blue; assay type: cell-based; details: Homo sapiens, IMR-90, read-out: % inhibition at 30 μM
# Procedure: Cell culture. IMR90 cells were obtained from ATCC. IMR90 cells were grown in EMEM with 10% fetal bovine serum (Gemini Benchmark, Cat #100-106), 100 U/mL penicillin, and 100 μg/mL streptomycin. All cells were cultured at 37° C. in a 5% CO2 environment. Media was prepared by the University of Illinois School of Chemical Sciences Cell Media Facility. Sex and age of cell lines: IMR90 ([…]).
# Cell viability. Cells seeded (IMR90: 5,000 cells/well) a 96-well plate (Greiner Bio-One, Cat #655180) and were allowed to attach overnight. Cells were treated with investigational compounds in DMSO (30 μM, 1% DMSO final, 100 μL/well). Raptinal (100 μM) was used as a dead control. After 24 h post-treatment, media was exchanged with compound-free media. After 72 h post-treatment, cell viability was assessed using the Alamar Blue method. Stock Alamar Blue solution [10 μL, 440 μM resazurin (Sigma-Aldrich, Cat #R7017) in sterile 1×PBS] was added to each well, and plate was incubated […]. Conversion of Alamar Blue was measured with plate reader (SpectraMax M3, Molecular Devices) by fluorescence (ex 555 nm, em 585 nm, cutoff 570 nm, autogain). Percent death was determined by normalizing to DMSO-treated cells and raptinal-treated cells.
# Mouse MTD = details: mice, IP injection, single dose, monitored 2 weeks
# Procedure: The protocol was approved by the IACUC at the University of Illinois at Urbana-Champaign (Protocol Number: 16144). In these studies, 10- to 12-week-old female C57BL/6 mice purchased from Charles River were used. The maximum tolerate dose (MTD) of a single compound was determined first. […] For multiple doses, the compound was given by daily IP for 5 consecutive days and mice were monitored for signs of toxicity for 1 month. MTD was the highest dosage with acceptable toxicity (e.g., <20% weight loss). Single dose MTDs were initially determined.
structure (smiles),measurement,setting,value
"Cc1ccc2nc(/C=C/c3ccc(Cl)cc3)nc(NCCN)c2c1 [Z14, (E)-N^1-(2-(4-chlorostyryl)-6-methylquinazolin-4-yl)ethane-1,2-diamine]",Bioactivity,K. pneumoniae BAA-2146,64
same,Bioactivity,E. coli BAA-2469 [1],8
same,Bioactivity,A. baumannii BAA-2093,8
"Cc1c(CN(C)C(=O)/C=C/c2cnc3c(c2)CC(CN)C(=O)N3)oc2ccccc12.Cl (stereo not drawn) [compound 2, (E)-3-(6-(aminomethyl)-7-oxo-5,6,7,8-tetrahydro-1,8-naphthyridin-3-yl)-N-methyl-N-((3-methylbenzofuran-2-yl)methyl)acrylamide hydrochloride]",antibacterial activity (in words),[2],active
same,MIC,"E. coli MG1655; E. coli MG1655, read-out: MIC",8 µg/mL
same,MIC,E. coli ΔtolC JW5503,0.125 µg/mL
same,MIC,K. pneumoniae BAA-2472,16 µg/mL
same,MIC,E. coli BAA-2471,4 µg/mL
same,MIC,A. baumannii W41979,16 µg/mL
same,MIC,A. baumannii KB343,> 64 µg/mL
same,MIC,E. coli ΔrfaC JW3596,0.5 µg/mL
same,MIC,E. coli AR-0346,4 µg/mL
same,MIC,A. baumannii F19521,16 µg/mL
same,MIC,E. cloacae BAA-2341,16 µg/mL
same,MIC,E. coli AR-0349,2 µg/mL
same,MIC,A. baumannii KB357,> 64 µg/mL
same,MIC,K. pneumoniae S47889,8 µg/mL
same,MIC,E. cloacae S28901.1,8 µg/mL
same,MIC,E. coli AR-0495,2 µg/mL
same,MIC,K. pneumoniae BAA-2473,16 µg/mL
same,MIC,K. pneumoniae BAA-1705,16 µg/mL
same,MIC,A. baumannii WO22,> 64 µg/mL
same,MIC,E. coli AR-0493,4 µg/mL
same,MIC,A. baumannii M13100,16 µg/mL
same,MIC,K. pneumoniae S20595,16 µg/mL
same,MIC,K. pneumoniae M67297,32 µg/mL
same,MIC,K. pneumoniae BAA-2470,4 µg/mL
same,MIC,K. pneumoniae AR-0347,8 µg/mL
same,MIC,K. pneumoniae BAA-2342,16 µg/mL
same,MIC,S. aureus ATCC 29213; read-out: MIC,0.03 µg/mL
same,MIC,K. pneumoniae M14723,16 µg/mL
same,MIC,K. pneumoniae M67198,32 µg/mL
same,MIC,E. coli BAA-2469 [3],2 µg/mL
same,MIC,A. baumannii KB304,64 µg/mL
same,MIC,E. cloacae BAA-2468,8 µg/mL
"Cc1c(CN(C)C(=O)/C=C/c2cnc3c(c2)CC(CCN)C(=O)N3)oc2ccccc12 (stereo not drawn) [compound 3, (E)-3-(6-(aminoethyl)-7-oxo-5,6,7,8-tetrahydro-1,8-naphthyridin-3-yl)-N-methyl-N-((3-methylbenzofuran-2-yl)methyl)acrylamide hydrochloride]",inhibition at 30 µM,H. sapiens IMR-90,12%
same,antibacterial activity (in words),[2],active
same,MIC,E. coli MG1655; MG1655,8 µg/mL
same,MIC,E. coli ΔtolC JW5503,0.062 µg/mL
same,MIC,E. coli ΔrfaC JW3596,0.5 µg/mL
same,MIC,S. aureus ATCC 29213,0.125 µg/mL
same,single dose well tolerated,Mouse MTD,100 mg/kg
